Measurements from patent US5216183A, “Cyclopentanone/cyclopentenone derivative” (Teijin Limited, priority 1988, dated 1993).

System: human osteoblasts (KK-3, 18PDL)
Test: Measurement of bone formation activity (KK-3, 14 days)
Assay type: cell-based
Description: Human osteoblasts (KK-3, 18PDL) were cultured in an α-MEM containing 10% fetal calf serum. After the growth became stationary, the compound was added in a given concentration in the presence of 2 mM α-glycerophosphate and treated for 14 days. The cell phase was washed with physiological saline, and the alkaline phosphatase activity (ALP) was measured through the absorption of OD415. Then, calcium (Ca) and phosphorus (P) were extracted with a 2N hydrochloric acid and quantitatively determined.

[1] = Table 30, 10^-6 M, control 0.60 ± 0.02
[2] = Table 30, 10^-6 M, control 3.00 ± 1.73
[3] = Table 30, 10^-7 M, control 0.60 ± 0.02
[4] = Table 30, 10^-7 M, control 3.00 ± 1.73
[5] = Table 30, 10^-7 M, control 5.33 ± 1.15
[6] = Table 33, 10^-5 M, control 0.80 ± 0.02
[7] = Table 33, 10^-5 M, control 15.67 ± 1.53
[8] = Table 33, 10^-5 M, control 22.67 ± 3.06
[9] = Table 33, 10^-6 M, control 0.80 ± 0.02
[10] = Table 33, 10^-6 M, control 22.67 ± 3.06
[11] = Table 35, 10^-5 M, control 1.23 ± 0.02
[12] = Table 35, 10^-5 M, control 3.00 ± 1.00
[13] = Table 35, 10^-6 M, control 1.23 ± 0.02
[14] = Table 35, 10^-6 M, control 3.00 ± 1.00
[15] = Table 35, 10^-6 M, control 5.67 ± 0.58

Q: With `O=C1C(Sc2ccccn2)=CC(O)(CCCCOc2ccccc2)C1=CC=CC(O)CCCO` (stereo not shown) as the molecule, how does the ALP (Table 26, 10^-6 M, control 0.27 ± 0.04) read?
A: The ALP was 0.36 ± 0.12 OD413 /dish.

Q: And the P (Table 26, 10^-6 M, control 30.68 ± 3.33)?
A: Its P is 42.28 ± 6.99 μg/dish.

Q: And the Ca (Table 26, 10^-6 M, control 45.61 ± 6.19)?
A: Its Ca is 70.42 ± 7.82 μg/dish.

Q: And the ALP (Table 26, 10^-7 M, control 0.27 ± 0.04)?
A: The ALP was 0.29 ± 0.04 OD413 /dish.

Q: And the Ca (Table 26, 10^-7 M, control 45.61 ± 6.19)?
A: Its Ca is 56.85 μg/dish.

Q: Which ALP (Table 27, 10^-7 M, control 0.58 ± 0.03) does the source give for `O=C1C(SC2CCCCC2)=CC(O)(CCCCOc2ccccc2)C1C(O)C=CC(O)CCCO` (stereo not shown) here?
A: The ALP was 0.55 ± 0.04 OD413 /dish.

Q: What about the P (Table 27, 10^-7 M, control 11.50 ± 1.73) of the same molecule?
A: The P was 11.67 ± 3.18 μg/dish.

Q: And the Ca (Table 27, 10^-7 M, control 11.83 ± 3.18)?
A: Its Ca is 13.83 ± 1.15 μg/dish.

Q: And the ALP (Table 27, 10^-8 M, control 0.58 ± 0.03)?
A: Its ALP is 0.36 OD413 /dish.

Q: And the Ca (Table 27, 10^-8 M, control 11.83 ± 3.18)?
A: Its Ca is 20.17 μg/dish.

Q: Which results are given for `COC(=O)CCCCCC=C1C(=O)C(Sc2nccn2C)=CC1(O)CCCCOc1ccccc1` (stereo not shown)?
A: ALP [1]: 0.60 OD415 /dish; Ca [2]: 43.67 μg/dish; ALP [3]: 0.63 ± 0.02 OD415 /dish; Ca [4]: 3.67 ± 1.15 μg/dish; P [5]: 6.33 ± 0.58 μg/dish

Q: Which results are given for `Cn1ccnc1SC1=CC(O)(CCCCOc2ccccc2)C(=CC=CC2(O)CCCCC2)C1=O` (stereo not shown)?
A: ALP [1]: 0.11 OD415 /dish; Ca [2]: 85.67 μg/dish; ALP [3]: 0.58 ± 0.03 OD415 /dish; Ca [4]: 14.00 ± 1.00 μg/dish; P [5]: 12.67 ± 1.15 μg/dish

Q: How did the ALP [1] turn out when `Cn1ccnc1SC1=CC(O)(CCCCOc2ccccc2)C(=Cc2ccc(CC(CO)CO)cc2)C1=O` (stereo not shown) was run?
A: Its ALP is 0.08 OD415 /dish.

Q: And the Ca [2]?
A: The Ca was 116.00 μg/dish.

Q: What about the ALP [3] of the same molecule?
A: Its ALP is 0.66 ± 0.03 OD415 /dish.

Q: What about the Ca [4] of the same molecule?
A: The Ca was 11.00 ± 1.73 μg/dish.

Q: And the P [5]?
A: The P was 11.67 ± 1.15 μg/dish.

Q: What does the source list for `CC(C)(C)C1=C(Sc2ccccc2)C(=O)C(=CC=CC(O)CCCO)C1O` (stereo not shown)?
A: ALP (Table 31, 10^-7 M, control 0.18 ± 0.06): 0.16 ± 0.04 OD415 /dish; Ca (Table 31, 10^-7 M, control 1.88 ± 0.31): 2.43 ± 0.19 μg/dish; P (Table 31, 10^-7 M, control 4.73 ± 0.37): 4.68 ± 0.27 μg/dish; ALP (Table 31, 10^-8 M, control 0.18 ± 0.06): 0.15 OD415 /dish; Ca (Table 31, 10^-8 M, control 1.88 ± 0.31): 4.07 μg/dish

Q: Which ALP (Table 32, 10^-5 M, control 0.80 ± 0.01) does the source give for `CSC1=CC(O)(CCCCOc2ccccc2)C(CC=CC(O)CCCO)C1=O` (stereo not shown) here?
A: Its ALP is 0.56 OD415 /dish.

Q: What about the Ca (Table 32, 10^-5 M, control 23.00 ± 1.00) of the same molecule?
A: Its Ca is 30.67 ± 2.31 μg/dish.

Q: And the ALP (Table 32, 10^-6 M, control 0.80 ± 0.01)?
A: The ALP was 0.84 ± 0.03 OD415 /dish.

Q: What about the P (Table 32, 10^-6 M, control 15.67 ± 0.58) of the same molecule?
A: Its P is 9.33 ± 1.15 μg/dish.

Q: What about the Ca (Table 32, 10^-6 M, control 23.00 ± 1.00) of the same molecule?
A: The Ca was 10.67 ± 1.53 μg/dish.

Q: For `COC(=O)CCCC#CCC1C(=O)C(SC)=CC1(O)CCCCOc1ccccc1` (stereo not shown), which ALP [6] is on record?
A: The ALP was 0.98 ± 0.08 OD415 /dish.

Q: And the P [7]?
A: The P was 35.33 ± 0.58 μg/dish.

Q: And the Ca [8]?
A: Its Ca is 58.67 ± 1.53 μg/dish.

Q: And the ALP [9]?
A: The ALP was 0.90 OD415 /dish.

Q: And the Ca [10]?
A: Its Ca is 24.33 ± 1.53 μg/dish.

Q: Which results are given for `CSC1=CC(CCCCOc2ccccc2)C(=C/C=C/C(O)CCCO)C1=O` (stereo not shown)?
A: ALP [6]: 0.79 ± 0.02 OD415 /dish; P [7]: 31.00 ± 1.00 μg/dish; Ca [8]: 50.67 ± 1.15 μg/dish; ALP [9]: 0.76 OD415 /dish; Ca [10]: 19.67 ± 2.52 μg/dish

Q: Which results are given for `O=C1C(=CCCC2CCCCC2)CC=C1Sc1ccccc1`?
A: ALP (Table 34, 10^-7 M, control 0.35 ± 0.02): 0.36 ± 0.04 OD415 /dish; P (Table 34, 10^-7 M, control 12.41 ± 1.50): 12.33 ± 2.80 μg/dish; Ca (Table 34, 10^-7 M, control 17.81 ± 0.50): 23.94 ± 5.80 μg/dish; ALP (Table 34, 10^-8 M, control 0.35 ± 0.02): 0.30 OD415 /dish; P (Table 34, 10^-8 M, control 12.41 ± 1.50): 8.98 ± 1.89 μg/dish; Ca (Table 34, 10^-8 M, control 17.81 ± 0.50): 18.13 ± 2.6 μg/dish

Q: `CC(=O)OC(/C=C/C(O)CCCO)C1C(=O)C(Sc2nccn2C)=CC1(O)CCCCOc1ccccc1` (stereo not shown) was tested. Which ALP [11] did it give?
A: Its ALP is 0.15 OD415 /dish.

Q: What about the Ca [12] of the same molecule?
A: The Ca was 137.00 μg/dish.

Q: What about the ALP [13] of the same molecule?
A: Its ALP is 1.28 ± 0.03 OD415 /dish.

Q: And the Ca [14]?
A: The Ca was 51.67 ± 8.08 μg/dish.

Q: What about the P [15] of the same molecule?
A: Its P is 35.33 ± 5.03 μg/dish.

Q: What does the source list for `CSC1=CC(O)(CCCCOc2ccccc2)C(C(/C=C/C(O)CCCO)OC(C)=O)C1=O` (stereo not shown)?
A: ALP [11]: 0.17 OD415 /dish; Ca [12]: 104.00 μg/dish; ALP [13]: 1.10 ± 0.06 OD415 /dish; Ca [14]: 24.08 ± 2.00 μg/dish; P [15]: 18.00 ± 1.00 μg/dish
